Assay results reported in patent US20140296212A1, “SUBSTITUTED PHENOXYPROPYLCYCLOAMINE DERIVATIVES AS HISTAMINE-3 (H3) RECEPTOR LIGANDS” (CEPHALON, INC., priority 2009, published 2014).
Like-named read-outs stand apart in the source and are kept apart here.

What was measured:
[1] = target: T1, rat histamine H3 receptor (Rattus norvegicus, UniProt Q9QYN8); test: Rat H3 radioligand binding ([3H]-N-alpha-methylhistamine, SPA)
T1 construct: encoding the entire 445-amino-acid rat histamine H3 receptor; expressed in transfected cells
Summary of the method: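 Membranes from CHO-A3 cells stably expressing full-length rat H3 receptor (445 aa) incubated with ~1 nM [3H]-N-alpha-methylhistamine and compound (0.01 nM–30 μM) in 50 mM Tris HCl pH 7.4, 5 mM MgCl2, 0.1% BSA, 4 h, room temperature; SPA bead read-out. Non-specific binding defined with 10 μM clobenpropit.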

human H3 receptor = target: T2, human H3 receptor (Homo sapiens, UniProt Q9Y5N1); test: Human H3 radioligand binding ([3H]-N-alpha-methylhistamine, SPA); conditions: membranes of CHO cells expressing human H3
T2 construct: expressed in transfected cells
Summary of the method: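 Membranes from H3-expressing cells (10 μg protein/well) in 50 mM Tris HCl pH 7.4, 5 mM MgCl2, 0.1% BSA with ~1 nM [3H]-N-alpha-methylhistamine and compound (0.01 nM–30 μM), SPA beads, 4 h, room temperature, dark. Non-specific binding defined with 10 μM clobenpropit; bound radioligand read by scintillation counting.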

[2] = membranes of CHO-A3 cells expressing rat H3, [3H]-N-alpha-methylhistamine, read-out: Rat H3 Ki

T2 sequence (Q9Y5N1 whole entry): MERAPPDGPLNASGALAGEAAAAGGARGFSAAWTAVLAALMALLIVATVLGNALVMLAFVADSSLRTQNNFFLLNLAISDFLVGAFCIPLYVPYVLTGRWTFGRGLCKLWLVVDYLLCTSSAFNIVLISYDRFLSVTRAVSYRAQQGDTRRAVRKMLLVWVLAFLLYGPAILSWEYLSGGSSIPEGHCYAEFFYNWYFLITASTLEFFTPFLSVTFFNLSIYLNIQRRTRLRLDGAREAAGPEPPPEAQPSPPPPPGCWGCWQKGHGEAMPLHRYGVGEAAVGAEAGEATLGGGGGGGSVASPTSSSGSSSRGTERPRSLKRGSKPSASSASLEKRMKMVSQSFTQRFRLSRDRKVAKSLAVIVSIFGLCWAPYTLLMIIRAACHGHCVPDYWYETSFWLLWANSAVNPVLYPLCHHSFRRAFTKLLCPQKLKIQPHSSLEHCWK
T1 sequence (Q9QYN8 whole entry): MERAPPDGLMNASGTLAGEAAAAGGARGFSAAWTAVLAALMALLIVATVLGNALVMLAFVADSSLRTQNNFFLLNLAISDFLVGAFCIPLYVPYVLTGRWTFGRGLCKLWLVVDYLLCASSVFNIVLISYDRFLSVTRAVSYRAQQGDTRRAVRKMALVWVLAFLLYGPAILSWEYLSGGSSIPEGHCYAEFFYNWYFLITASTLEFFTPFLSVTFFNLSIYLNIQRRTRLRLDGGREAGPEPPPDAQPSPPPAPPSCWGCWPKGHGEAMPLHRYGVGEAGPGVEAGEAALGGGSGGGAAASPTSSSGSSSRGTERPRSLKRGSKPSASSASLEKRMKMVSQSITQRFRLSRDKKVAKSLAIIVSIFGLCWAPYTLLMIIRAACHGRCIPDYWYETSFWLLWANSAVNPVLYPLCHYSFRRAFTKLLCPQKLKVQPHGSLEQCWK

Compound	Ki [1, 2] [nM]	melting point	Ki (human H3 receptor) [nM]	Ki [1] [nM]
C[C@@H]1CCCN1CCCOc1ccc(C(=O)CN2CCN(S(C)(=O)=O)CC2)cc1 [Example 66, 2-(4-Methanesulfonyl-piperazin-1-yl)-1-{4-[3-((R)-2-methyl-pyrrolidin-1-yl)-propoxy]-phenyl}-ethanone]	0.1 to 100	120 to 126 °C	0.1 to 100	
C[C@@H]1CCCN1CCCOc1ccc(C(=O)CN2CCN(C(=O)c3ccc(Cl)cc3)CC2)cc1 [Example 100, 2-[4-(4-Chloro-benzoyl)-piperazin-1-yl]-1-{4-[3-((R)-2-methyl-pyrrolidin-1-yl)-propoxy]-phenyl}-ethanone]	0.1 to 100	233 to 236 °C	0.1 to 100	
CC(C(=O)c1ccc(OCCCN2CCC[C@H]2C)cc1)N1CCOCC1 (stereo partly drawn) [Example 37, 1-{4-[3-((R)-2-Methyl-pyrrolidin-1-yl)-propoxy]-phenyl}-2-morpholin-4-yl-propan-1-one]		231 °C	0.1 to 100	101 to 500
O=C1CN(CCCOc2ccc(C(=O)CN3CCOCC3)cc2)CCN1 [Example 57, 4-{3-[4-(2-Morpholin-4-yl-acetyl)-phenoxy]-propyl}-piperazin-2-one]	> 1000	230 °C	> 1000	
C[C@@H]1CCCN1CCCOc1ccc(C(=O)CN2CCN(C(=O)c3ccco3)CC2)cc1 [Example 81, 2-[4-(Furan-2-carbonyl)-piperazin-1-yl]-1-{4-[3-((R)-2-methyl-pyrrolidin-1-yl)-propoxy]-phenyl}-ethanone]	0.1 to 100	130 to 135 °C	0.1 to 100	
Cc1cc(C(=O)CN2CCC(F)(F)CC2)cc(C)c1OCCCN1CCC[C@H]1C [Example 95, 2-(4,4-Difluoro-piperidin-1-yl)-1-{3,5-dimethyl-4-[3-((R)-2-methyl-pyrrolidin-1-yl)-propoxy]-phenyl}-ethanone]	> 1000	140 to 142 °C	101 to 500	
C[C@@H]1CCCN1CCCOc1ccc(C(=O)CN2CCN(C(=O)C3CC3)CC2)cc1 [Example 89, 2-(4-Cyclopropanecarbonyl-piperazin-1-yl)-1-{4-[3-((R)-2-methyl-pyrrolidin-1-yl)-propoxy]-phenyl}-ethanone]	0.1 to 100	202 to 204 °C	0.1 to 100	
C[C@@H]1CCCN1CCCOc1ccc(C(=O)CN2CCN(C(=O)c3ccc(C(F)(F)F)cc3)CC2)cc1 [Example 92, 1-{4-[3-((R)-2-Methyl-pyrrolidin-1-yl)-propoxy]-phenyl}-2-[4-(4-trifluoromethyl-benzoyl)-piperazin-1-yl]-ethanone]	0.1 to 100	227 to 230 °C	0.1 to 100	
CC(=O)N1CCN(CC(=O)c2cc(C)c(OCCCN3CCC[C@H]3C)c(C)c2)CC1 [Example 97, 2-(4-Acetyl-piperazin-1-yl)-1-{3,5-dimethyl-4-[3-((R)-2-methyl-pyrrolidin-1-yl)-propoxy]-phenyl}-ethanone]	501 to 1000	118 to 119 °C	101 to 500	
Cc1cc(C(=O)CN2CCN(c3ncccn3)CC2)cc(C)c1OCCCN1CCC[C@H]1C [Example 104, 1-{3,5-Dimethyl-4-[3-((R)-2-methyl-pyrrolidin-1-yl)-propoxy]-phenyl}-2-(4-pyrimidin-2-yl-piperazin-1-yl)-ethanone]	501 to 1000	155 to 160 °C (dec.)	101 to 500	
CC(=O)N1CCN(CC(=O)c2cc(Cl)c(OCCCN3CCC[C@H]3C)c(Cl)c2)CC1 [Example 110, 2-(4-Acetyl-piperazin-1-yl)-1-{3,5-dichloro-4-[3-((R)-2-methyl-pyrrolidin-1-yl)-propoxy]-phenyl}-ethanone]	101 to 500	115 °C	101 to 500	
C[C@@H]1CCCN1CCCOc1ccc(C(=O)CN2CCN(C(=O)c3ccccc3)CC2)cc1Cl [Example 113, 2-(4-Benzoyl-piperazin-1-yl)-1-{3-chloro-4-[3-((R)-2-methyl-pyrrolidin-1-yl)-propoxy]-phenyl}-ethanone]	0.1 to 100	130 to 137 °C	0.1 to 100	

Continued, in another order:

Ki [1, 2] [nM]	melting point	Ki (human H3 receptor) [nM]	Compound	Ki [1] [nM]
0.1 to 100	115 to 120 °C	0.1 to 100	C[C@@H]1CCCN1CCCOc1ccc(C(=O)CN2CCN(C)C(=O)C2)cc1 [Example 155, 1-Methyl-4-(2-{4-[3-((R)-2-methyl-pyrrolidin-1-yl)-propoxy]-phenyl}-2-oxo-ethyl)-piperazin-2-one]	
101 to 500	130 to 143 °C	0.1 to 100	C[C@@H]1CCCN1CCCOc1ccc(C(=O)CN2CCC(F)(F)CC2)cc1Cl [Example 134, 1-{3-Chloro-4-[3-((R)-2-methyl-pyrrolidin-1-yl)-propoxy]-phenyl}-2-(4,4-difluoro-piperidin-1-yl)-ethanone]	
0.1 to 100	120 to 126 °C	0.1 to 100	CC(=O)N1CCN(CC(=O)c2ccc(OCCCN3CCC[C@H]3C)c(C)c2)CC1 [Example 156, 2-(4-Acetyl-piperazin-1-yl)-1-{3-methyl-4-[3-((R)-2-methyl-pyrrolidin-1-yl)-propoxy]-phenyl}-ethanone]	
0.1 to 100	206 °C	0.1 to 100	C[C@@H]1CCCN1CCCOc1ccc(C(=O)CN2CCC(F)(F)C2)cc1F [Example 139, 2-(3,3-Difluoro-pyrrolidin-1-yl)-1-{3-fluoro-4-[3-((R)-2-methyl-pyrrolidin-1-yl)-propoxy]-phenyl}-ethanone]	
0.1 to 100	218 to 219 °C	0.1 to 100	CCOC(=O)N1CCN(CC(=O)c2ccc(OCCCN3CCC[C@H]3C)cc2)CC1 [Example 115, 4-(2-{4-[3-((R)-2-Methyl-pyrrolidin-1-yl)-propoxy]-phenyl}-2-oxo-ethyl)-piperazine-1-carboxylic acid ethyl ester]	
0.1 to 100	236 °C	0.1 to 100	COC(=O)N1CCN(CC(=O)c2ccc(OCCCN3CCC[C@H]3C)c(F)c2)CC1 [Example 127, 4-(2-{3-Fluoro-4-[3-((R)-2-methyl-pyrrolidin-1-yl)-propoxy]-phenyl}-2-oxo-ethyl)-piperazine-1-carboxylic acid methyl ester]	
0.1 to 100	137 to 150 °C	0.1 to 100	C[C@@H]1CCCN1CCCOc1ccc(C(=O)CN2CCN(C(=O)c3cccc(Cl)c3Cl)CC2)cc1 [Example 157, 2-[4-(2,3-Dichloro-benzoyl)-piperazin-1-yl]-1-{4-[3-((R)-2-methyl-pyrrolidin-1-yl)-propoxy]-phenyl}-ethanone]	
0.1 to 100	117 to 119 °C	0.1 to 100	C[C@@H]1CCCN1CCCOc1ccc(C(=O)CN2CCN(C(=O)c3ccccc3-c3ccccc3)CC2)cc1 [Example 152, 2-[4-(Biphenyl-2-carbonyl)-piperazin-1-yl]-1-{4-[3-((R)-2-methyl-pyrrolidin-1-yl)-propoxy]-phenyl}-ethanone]	
101 to 500	79 to 85 °C	0.1 to 100	Cc1cc(C(=O)CN2CCNC(=O)C2)ccc1OCCCN1CCC[C@H]1C [Example 150, 4-(2-{3-Methyl-4-[3-((R)-2-methyl-pyrrolidin-1-yl)-propoxy]-phenyl}-2-oxo-ethyl)-piperazin-2-one]	
0.1 to 100	219 °C	0.1 to 100	C[C@@H]1CCCN1CCCOc1ccc(C(=O)CN2CCN(c3ncccn3)CC2)cc1F [Example 119, 1-{3-Fluoro-4-[3-((R)-2-methyl-pyrrolidin-1-yl)-propoxy]-phenyl}-2-(4-pyrimidin-2-yl-piperazin-1-yl)-ethanone]	
101 to 500	220 °C	0.1 to 100	C[C@@H]1CCCN1CCCOc1ccc(C(=O)CN2CCC(F)(F)CC2)cc1F [Example 141, 2-(4,4-Difluoro-piperidin-1-yl)-1-{3-fluoro-4-[3-((R)-2-methyl-pyrrolidin-1-yl)-propoxy]-phenyl}-ethanone]	
0.1 to 100	86 °C	0.1 to 100	C[C@@H]1CCCN1CCCOc1ccc(C(=O)CN2CCN(S(C)(=O)=O)CC2)cc1F [Example 122, 1-{3-Fluoro-4-[3-((R)-2-methyl-pyrrolidin-1-yl)-propoxy]-phenyl}-2-(4-methanesulfonyl-piperazin-1-yl)-ethanone]	
0.1 to 100	115.4 to 120 °C	0.1 to 100	C[C@@H]1CCCN1CCCOc1ccc(C(=O)CN2CCN(C(=O)c3ccc4ccccc4n3)CC2)cc1 [Example 145, 1-{4-[3-((R)-2-Methyl-pyrrolidin-1-yl)-propoxy]-phenyl}-2-[4-(quinoline-2-carbonyl)-piperazin-1-yl]-ethanone]	
501 to 1000	125 to 135 °C	101 to 500	C[C@@H]1CCCN1CCCOc1cccc(C(=O)CN2CCN(C(=O)c3ccccc3)CC2)c1 [Example 153, 2-(4-Benzoyl-piperazin-1-yl)-1-{3-[3-((R)-2-methyl-pyrrolidin-1-yl)-propoxy]-phenyl}-ethanone]	
101 to 500	112 to 114 °C	0.1 to 100	C[C@@H]1CCCN1CCCOc1ccc(C(=O)CN2CCN(c3ncccn3)CC2)cc1Cl [Example 125, 1-{3-Chloro-4-[3-((R)-2-methyl-pyrrolidin-1-yl)-propoxy]-phenyl}-2-(4-pyrimidin-2-yl-piperazin-1-yl)-ethanone]	
